# Test system: NCI-H460
# Experiment: Tested for growth inhibition activity against lung NCI-H460 human cancer cell
# Assay type: functional
row,Compound,Growth-inhibitory concentration
1,CC(=O)O[C@H]1[C@@H]2NC(=O)c3cc4c(cc3[C@H]2CC[C@H]1OC(C)=O)OCO4,>10 µg/mL
2,O=C1N[C@H]2[C@H](O)[C@H](O)CC[C@@H]2c2cc3c(cc21)OCO3,>10 µg/mL
3,COC(=O)N[C@H]1[C@H](OC(C)=O)[C@H](OC(C)=O)[C@@H](OC(C)=O)[C@H](OC(C)=O)[C@@H]1c1cccc(OC)c1,>10 µg/mL
4,O=C1N[C@H]2[C@H](O)[C@H](O)[C@@H](O)[C@H](O)[C@@H]2c2cc3c(cc21)OCO3,0.29 µg/mL
5,COc1ccc2c(c1)[C@H]1[C@@H](O)[C@H](O)[C@@H](O)[C@@H](O)[C@@H]1NC2=O,2.8 µg/mL
6,O=C1N[C@H]2[C@H](O)[C@H](O)[C@@H](O)[C@H](O)[C@@H]2c2cc3c(c(O)c21)OCO3 [PANCRATISTATIN],0.048 µg/mL
7,O=C1N[C@@H]2C(=C[C@H](O)[C@@H](O)[C@H]2O)c2cc3c(c(O)c21)OCO3 [NARCICLASINE],0.032 µg/mL
8,COc1ccc2c(c1)[C@@H]1[C@@H](NC2=O)[C@H](OC(C)=O)[C@H](OC(C)=O)[C@@H](OC(C)=O)[C@@H]1OC(C)=O,>10 µg/mL

# Test system: SF-268
# Experiment: Tested for growth inhibition activity against CNS SF-268 human cancer cell
# Assay type: functional
row,Compound,Growth-inhibitory concentration
1,CC(=O)O[C@H]1[C@@H]2NC(=O)c3cc4c(cc3[C@H]2CC[C@H]1OC(C)=O)OCO4,>10 µg/mL
2,O=C1N[C@H]2[C@H](O)[C@H](O)CC[C@@H]2c2cc3c(cc21)OCO3,>10 µg/mL
3,COC(=O)N[C@H]1[C@H](OC(C)=O)[C@H](OC(C)=O)[C@@H](OC(C)=O)[C@H](OC(C)=O)[C@@H]1c1cccc(OC)c1,>10 µg/mL
4,COc1ccc2c(c1)[C@H]1[C@@H](O)[C@H](O)[C@@H](O)[C@@H](O)[C@@H]1NC2=O,3.3 µg/mL
5,O=C1N[C@H]2[C@H](O)[C@H](O)[C@@H](O)[C@H](O)[C@@H]2c2cc3c(c(O)c21)OCO3 [PANCRATISTATIN],0.017 µg/mL
6,O=C1N[C@@H]2C(=C[C@H](O)[C@@H](O)[C@H]2O)c2cc3c(c(O)c21)OCO3 [NARCICLASINE],0.021 µg/mL
7,COc1ccc2c(c1)[C@@H]1[C@@H](NC2=O)[C@H](OC(C)=O)[C@H](OC(C)=O)[C@@H](OC(C)=O)[C@@H]1OC(C)=O,>10 µg/mL

# Test system: P388
# Experiment: Tested for growth inhibition activity against murine P388 lymphocytic leukemia
# Assay type: functional, Mus musculus
row,Compound,Growth-inhibitory concentration
1,CC(=O)O[C@H]1[C@@H]2NC(=O)c3cc4c(cc3[C@H]2CC[C@H]1OC(C)=O)OCO4,1.1 µg/mL
2,O=C1N[C@H]2[C@H](O)[C@H](O)CC[C@@H]2c2cc3c(cc21)OCO3,1.39 µg/mL
3,COC(=O)N[C@H]1[C@H](OC(C)=O)[C@H](OC(C)=O)[C@@H](OC(C)=O)[C@H](OC(C)=O)[C@@H]1c1cccc(OC)c1,19.3 µg/mL
4,O=C1N[C@H]2[C@H](O)[C@H](O)[C@@H](O)[C@H](O)[C@@H]2c2cc3c(cc21)OCO3,0.44 µg/mL
5,COc1ccc2c(c1)[C@H]1[C@@H](O)[C@H](O)[C@@H](O)[C@@H](O)[C@@H]1NC2=O,4.3 µg/mL
6,O=C1N[C@H]2[C@H](O)[C@H](O)[C@@H](O)[C@H](O)[C@@H]2c2cc3c(c(O)c21)OCO3 [PANCRATISTATIN],0.039 µg/mL
7,O=C1N[C@@H]2C(=C[C@H](O)[C@@H](O)[C@H]2O)c2cc3c(c(O)c21)OCO3 [NARCICLASINE],0.0012 µg/mL
8,COc1ccc2c(c1)[C@@H]1[C@@H](NC2=O)[C@H](OC(C)=O)[C@H](OC(C)=O)[C@@H](OC(C)=O)[C@@H]1OC(C)=O,2.1 µg/mL

# Test system: MCF7
# Experiment: Tested for growth inhibition activity against breast MCF-7 human cancer cell
# Assay type: functional
row,Compound,Growth-inhibitory concentration
1,CC(=O)O[C@H]1[C@@H]2NC(=O)c3cc4c(cc3[C@H]2CC[C@H]1OC(C)=O)OCO4,>10 µg/mL
2,O=C1N[C@H]2[C@H](O)[C@H](O)CC[C@@H]2c2cc3c(cc21)OCO3,>10 µg/mL
3,COC(=O)N[C@H]1[C@H](OC(C)=O)[C@H](OC(C)=O)[C@@H](OC(C)=O)[C@H](OC(C)=O)[C@@H]1c1cccc(OC)c1,>10 µg/mL
4,COc1ccc2c(c1)[C@H]1[C@@H](O)[C@H](O)[C@@H](O)[C@@H](O)[C@@H]1NC2=O,4.4 µg/mL
5,O=C1N[C@H]2[C@H](O)[C@H](O)[C@@H](O)[C@H](O)[C@@H]2c2cc3c(c(O)c21)OCO3 [PANCRATISTATIN],0.032 µg/mL
6,O=C1N[C@@H]2C(=C[C@H](O)[C@@H](O)[C@H]2O)c2cc3c(c(O)c21)OCO3 [NARCICLASINE],0.019 µg/mL
7,COc1ccc2c(c1)[C@@H]1[C@@H](NC2=O)[C@H](OC(C)=O)[C@H](OC(C)=O)[C@@H](OC(C)=O)[C@@H]1OC(C)=O,4.6 µg/mL

# Test system: KM-20L2
# Experiment: Tested for growth inhibition activity against colon KM20L2 human cancer cell
# Assay type: functional
row,Compound,Growth inhibitory concentration
1,CC(=O)O[C@H]1[C@@H]2NC(=O)c3cc4c(cc3[C@H]2CC[C@H]1OC(C)=O)OCO4,>10 µg/mL
2,O=C1N[C@H]2[C@H](O)[C@H](O)CC[C@@H]2c2cc3c(cc21)OCO3,>10 µg/mL
3,COC(=O)N[C@H]1[C@H](OC(C)=O)[C@H](OC(C)=O)[C@@H](OC(C)=O)[C@H](OC(C)=O)[C@@H]1c1cccc(OC)c1,>10 µg/mL
4,O=C1N[C@H]2[C@H](O)[C@H](O)[C@@H](O)[C@H](O)[C@@H]2c2cc3c(cc21)OCO3,0.22 µg/mL
5,COc1ccc2c(c1)[C@H]1[C@@H](O)[C@H](O)[C@@H](O)[C@@H](O)[C@@H]1NC2=O,3.6 µg/mL
6,O=C1N[C@H]2[C@H](O)[C@H](O)[C@@H](O)[C@H](O)[C@@H]2c2cc3c(c(O)c21)OCO3 [PANCRATISTATIN],0.062 µg/mL
7,O=C1N[C@@H]2C(=C[C@H](O)[C@@H](O)[C@H]2O)c2cc3c(c(O)c21)OCO3 [NARCICLASINE],0.021 µg/mL
8,COc1ccc2c(c1)[C@@H]1[C@@H](NC2=O)[C@H](OC(C)=O)[C@H](OC(C)=O)[C@@H](OC(C)=O)[C@@H]1OC(C)=O,>10 µg/mL

# Test system: DU-145
# Experiment: Tested for growth inhibition activity against prostate DU-145 human cancer cell
# Assay type: functional
row,Compound,Growth-inhibitory concentration
1,CC(=O)O[C@H]1[C@@H]2NC(=O)c3cc4c(cc3[C@H]2CC[C@H]1OC(C)=O)OCO4,>10 µg/mL
2,O=C1N[C@H]2[C@H](O)[C@H](O)CC[C@@H]2c2cc3c(cc21)OCO3,>10 µg/mL
3,COC(=O)N[C@H]1[C@H](OC(C)=O)[C@H](OC(C)=O)[C@@H](OC(C)=O)[C@H](OC(C)=O)[C@@H]1c1cccc(OC)c1,>10 µg/mL
4,COc1ccc2c(c1)[C@H]1[C@@H](O)[C@H](O)[C@@H](O)[C@@H](O)[C@@H]1NC2=O,2.6 µg/mL
5,O=C1N[C@H]2[C@H](O)[C@H](O)[C@@H](O)[C@H](O)[C@@H]2c2cc3c(c(O)c21)OCO3 [PANCRATISTATIN],0.016 µg/mL
6,O=C1N[C@@H]2C(=C[C@H](O)[C@@H](O)[C@H]2O)c2cc3c(c(O)c21)OCO3 [NARCICLASINE],0.011 µg/mL
7,COc1ccc2c(c1)[C@@H]1[C@@H](NC2=O)[C@H](OC(C)=O)[C@H](OC(C)=O)[C@@H](OC(C)=O)[C@@H]1OC(C)=O,6.7 µg/mL

# Test system: BXPC-3
# Experiment: Tested for growth inhibition activity against pancreas BXPC-3 human cancer cell
# Assay type: functional
row,Compound,Growth-inhibitory concentration
1,CC(=O)O[C@H]1[C@@H]2NC(=O)c3cc4c(cc3[C@H]2CC[C@H]1OC(C)=O)OCO4,>10 µg/mL
2,O=C1N[C@H]2[C@H](O)[C@H](O)CC[C@@H]2c2cc3c(cc21)OCO3,>10 µg/mL
3,COC(=O)N[C@H]1[C@H](OC(C)=O)[C@H](OC(C)=O)[C@@H](OC(C)=O)[C@H](OC(C)=O)[C@@H]1c1cccc(OC)c1,>10 µg/mL
4,COc1ccc2c(c1)[C@H]1[C@@H](O)[C@H](O)[C@@H](O)[C@@H](O)[C@@H]1NC2=O,4.9 µg/mL
5,O=C1N[C@H]2[C@H](O)[C@H](O)[C@@H](O)[C@H](O)[C@@H]2c2cc3c(c(O)c21)OCO3 [PANCRATISTATIN],0.028 µg/mL
6,O=C1N[C@@H]2C(=C[C@H](O)[C@@H](O)[C@H]2O)c2cc3c(c(O)c21)OCO3 [NARCICLASINE],0.026 µg/mL
7,COc1ccc2c(c1)[C@@H]1[C@@H](NC2=O)[C@H](OC(C)=O)[C@H](OC(C)=O)[C@@H](OC(C)=O)[C@@H]1OC(C)=O,>10 µg/mL

# Reference: ChEMBL document CHEMBL1146765, “Synthesis and biological activity of some structural modifications of pancratistatin” (2004)
